Patent publication US20210087159A1, “TETRAHYDROCANNABINOLIC- CA[…] DERIVATIVES AND USES THEREOF” (AL&AM […]., priority 2018, published 2021)
Where two headings read alike, the source gives them in different places.

Assays:
Assay in all cases: CellTiter-Glo cell viability assay, cancer cell cytotoxicity/anti-proliferation panel (Chempartner)
Format in all cases: cell-based
A549, lung carcinoma = settings: for Inhibition: A549, 72 hours, compounds 10 μM starting, STS 2 μM starting, 10-pt, 3-fold dilution; for IC50: Homo sapiens, A549, 72 h, read-out: IC50 (absolute IC50)
Procedure: (§1) In this study, the biological activity of certain compounds of the present invention on cancer cell cytotoxicity/anti-proliferation panel was tested using the CellTiter-Glo® cell viability assay. The compounds were dissolved in DMSO to make 10 mM solution.
(§2) The cell lines tested were all selected from the Chempartner's cell collection and included: Caco-2 ATCC colon adenocarcinoma; TE-6 RIKEN esophagus, carcinoma; PC-3 ATCC prostate adenocarcinoma; T47D, breast ductal carcinoma; U251, brain human glioma; A549, lung carcinoma; OMP-2, multiple myeloma; SK-HEP-1, liver adenocarcinoma; PANC-1, pancreas ductal carcinoma; AsPC-1, pancreas, ductal carcinoma; and U-87 MG, brain glioblastoma.
(§3) For the assays described herein, absolute inhibition of cells growth (%) and absolute IC50 (Abs IC50; […]) were used to derive a value that can be used to compare results within and across runs in the same assay, as well as between different assays.
(§4) • a. Prepare complete medium: Add FBS and appropriate additives according to the information sheet provided by the vendor. Mix gently. • b. Check the cell name and complete medium and passage number marked on the flask. For adherent cell lines, refer to c to k. For suspension cell lines, refer to g to k. • c. Remove and discard culture medium using a vacuum pump. • d. Briefly rinse the cell layer with 0.25% (w/v) trypsin-0.038% (w/v) EDTA solution to remove all traces of serum that contains trypsin inhibitor. • e. Add 3.0 ml of trypsin-EDTA solution to flask and observe cells under an inverted microscope until cell layer is dispersed. • f. Add 8.0 ml of complete growth medium and aspirate cells by gently pipetting. • g. Transfer the cell suspension to a centrifuge tube and centrifuge at 800-1000 rpm for 3-5 minutes. • h. Discard the supernatant using a vacuum pump. • i. Add appropriate volume of complete medium. Suspend the cell pellet by gently pipetting. • j. Count the cell numbers with Vi-cell XR and adjust cells to appropriate density. • k. Add 100 μL of cell suspension to 96-well opaque-walled clear bottom plates according to the planned plate layout and place the plates in the CO2 incubator overnight. • l. Plate layout:
(§5) • Plate preparation of testing articles. 10 mM stock solution of each one of the compounds (provided as powder) was prepared in DMSO. […] 0.5 μL of each of the diluted compounds was transferred to the wells containing 100 μL of the culture medium. The total dilution was 200 fold. Cells were incubated with the compounds for 72 hours at 5% CO2, 37° C.
(§6) • Thaw the CellTiter-Glo buffer and equilibrate to room temperature prior to use. • Equilibrate the lyophilized CellTiter-Glo substrate to room temperature prior to use. • Transfer the appropriate volume of CellTiter-Glo buffer into the amber bottle containing CellTiter-Glo substrate to reconstitute the lyophilized enzyme/substrate mixture. This forms the CellTiter-Glo reagent. • Mix by gently vortexing, swirling or by inverting the contents to obtain a homogeneous solution. The CellTiter-Glo substrate should go into solution easily in less than one minute.
(§7) • Observe the cell morphology under an inverted microscope after corresponding treatment. • Equilibrate the plate and its contents to room temperature for approximately 30 minutes. • Add 100 μL of CellTiter-Glo reagent to the assay plate by Multidrop Combi instrument. • Mix contents for 10 minutes on an orbital shaker to induce cell lysis. • Allow the plate to incubate at room temperature for 10 minutes to stabilize luminescent signal. • Paste the clear bottom with white back seal and record luminescence with Enspire. The settings should be: Luminescence, measurement time 0.1 ms.
(§8) Inhibition (%) and absolute IC50 (μM) of each compound was calculated with XLFit curve fitting software that is compatible to Activity Base.

OMP-2, multiple myeloma = settings: for IC50: 72 h, read-out: IC50 (absolute IC50); for Inhibition: OMP-2, 72 hours, compounds 10 μM starting, STS 2 μM starting, 10-pt, 3-fold dilution
Procedure: as §1, §2, §3, §4, §5, §6, §7, §8

[1] = system: PANC-1, pancreas ductal carcinoma; settings: for IC50: Homo sapiens, PANC-1, 72 h, read-out: IC50 (absolute IC50); for Inhibition: PANC-1, 72 hours, compounds 10 μM starting, STS 2 μM starting, 10-pt, 3-fold dilution
Procedure: as §1, §2, §3, §4, §5, §6, §7, §8

[2] = system: SK-HEP-1, liver adenocarcinoma; settings: for IC50: Homo sapiens, SK-HEP1, 72 h, read-out: IC50 (absolute IC50); for Inhibition: SK-HEP-1, 72 hours, compounds 10 μM starting, STS 2 μM starting, 10-pt, 3-fold dilution
Procedure: as §1, §2, §3, §4, §5, §6, §7, §8

[3] = system: T47D, breast ductal carcinoma; settings: for IC50: Homo sapiens; for Inhibition: compounds 10 μM starting, STS 2 μM starting
Procedure: as §1, §2, §3, §4, §5, §6, §7, §8

[4] = system: U-87 MG, brain glioblastoma; settings: for Inhibition: 72 hours, compounds 10 μM starting, STS 2 μM starting, 10-pt, 3-fold dilution; for IC50: Homo sapiens, 72 h, read-out: IC50 (absolute IC50)
Procedure: as §1, §2, §3, §4, §5, §6, §7, §8

[5] = T47D, 72 h, read-out: IC50 (absolute IC50)
[6] = T47D, 72 hours, 10-pt, 3-fold dilution

## CCCCCc1cc2c(c(O)c1C(=O)O)[C@@H]1C=C(C)CC[C@H]1C(C)(C)O2 [THCA, tetrahydrocannabinolic acid, reference compound]
A549, lung carcinoma
  Inhibition: 9.30%
  IC50: > 10 µM
OMP-2, multiple myeloma
  IC50: > 10 µM
  Inhibition: 5.94%
[1]
  IC50: > 10 µM
  Inhibition: 15.20%
[2]
  IC50: > 10 µM
  Inhibition: 16.52%
[3]; [5]
  IC50: > 10 µM
[3]; [6]
  Inhibition: 18.20%
[4]
  Inhibition: 10.52%
  IC50: > 10 µM

## CCCCCc1cc2c(c(O)c1C(=O)NCCN(C)C)[C@@H]1C=C(C)CC[C@H]1C(C)(C)O2 [Ia6, (6aR,0aR)—N-(2-(dimethylamino)ethyl)-1-hydroxy-6,6,9-trimethyl-3-pentyl-6a,7,8,10a-tetrahydro-6H-benzo[c]chromene-2-carboxamide]
A549, lung carcinoma
  Inhibition: 66.67%
  IC50: 7.34 µM
OMP-2, multiple myeloma
  IC50: > 10 µM
  Inhibition: 47.73%
[1]
  IC50: 6.02 µM
  Inhibition: 90.10%
[2]
  IC50: > 10 µM
  Inhibition: 49.38%
[3]; [5]
  IC50: 6.09 µM
[3]; [6]
  Inhibition: 84.19%
[4]
  Inhibition: 13.79%
  IC50: > 10 µM

## C=C(C)[C@@H]1CCC(C)=C[C@H]1c1c(O)cc(CCCCC)c(C(=O)NCCCN2CCOCC2)c1O [Ia28, (1′R,2′R)-2,6-dihydroxy-5′-methyl-N-(3-morpholinopropyl)-4-pentyl-2′-(prop-1-en-2-yl)-1′,2′,3′,4′-tetrahydro-[1,1′-biphenyl]-3-carboxamide]
[3]; Table 5, T47D cells, 72 hours, read-out: AbsIC50
  IC50: > 10 µM
[3]; Table 5, T47D cells, 72 hours, 10 μM starting, 10-pt, 3-fold dilution
  Inhibition %: 14.85%

## CCCCCc1cc2c(c(O)c1C(=O)NCCCN1CCOCC1)[C@@H]1C=C(C)CC[C@H]1C(C)(C)O2 [Ia9, (6aR,0aR)-1-hydroxy-6,6,9-trimethyl-N-(3-morpholinopropyl)-3-pentyl-6a,7,8,10a-tetrahydro-6H-benzo[c]chromene-2-carboxamide]
A549, lung carcinoma
  Inhibition: 77.08%
  IC50: 5.59 µM
OMP-2, multiple myeloma
  IC50: 6.72 µM
  Inhibition: 76.40%
[1]
  IC50: 5.46 µM
  Inhibition: 92.19%
[2]
  IC50: 5.41 µM
  Inhibition: 78.20%
[3]; [5]
  IC50: 5.52 µM
[3]; [6]
  Inhibition: 97.90%
[4]
  Inhibition: 19.84%
  IC50: > 10 µM
